Reference: ChEMBL document CHEMBL1145841, “Design and synthesis of poly ADP-ribose polymerase-1 inhibitors. 2. Biological evaluation of aza-5[H]-phenanthridin-6-ones as potent, aqueous-soluble compounds for the treatment of ischemic injuries” (J Med Chem, 2003)
Each block holds one compound with its values, some of them ahead of it.

Experiments:
P388 = test: Effective concentration required to inhibit P388D1 cell death by 50%; assay type: functional, cell-based; conditions: Mus musculus
[1] = Maximum concentration in plasma of rats after intravenous administration; assay type: ADME, organism-based; set-up: route intravenous; conditions: rat
[2] = target: Poly [ADP-ribose] polymerase 1 (Homo sapiens, UniProt P09874); test: Inhibitory activity against Poly (ADP-ribose) polymerase 1
Sequence of Poly [ADP-ribose] polymerase 1 (P09874 whole entry): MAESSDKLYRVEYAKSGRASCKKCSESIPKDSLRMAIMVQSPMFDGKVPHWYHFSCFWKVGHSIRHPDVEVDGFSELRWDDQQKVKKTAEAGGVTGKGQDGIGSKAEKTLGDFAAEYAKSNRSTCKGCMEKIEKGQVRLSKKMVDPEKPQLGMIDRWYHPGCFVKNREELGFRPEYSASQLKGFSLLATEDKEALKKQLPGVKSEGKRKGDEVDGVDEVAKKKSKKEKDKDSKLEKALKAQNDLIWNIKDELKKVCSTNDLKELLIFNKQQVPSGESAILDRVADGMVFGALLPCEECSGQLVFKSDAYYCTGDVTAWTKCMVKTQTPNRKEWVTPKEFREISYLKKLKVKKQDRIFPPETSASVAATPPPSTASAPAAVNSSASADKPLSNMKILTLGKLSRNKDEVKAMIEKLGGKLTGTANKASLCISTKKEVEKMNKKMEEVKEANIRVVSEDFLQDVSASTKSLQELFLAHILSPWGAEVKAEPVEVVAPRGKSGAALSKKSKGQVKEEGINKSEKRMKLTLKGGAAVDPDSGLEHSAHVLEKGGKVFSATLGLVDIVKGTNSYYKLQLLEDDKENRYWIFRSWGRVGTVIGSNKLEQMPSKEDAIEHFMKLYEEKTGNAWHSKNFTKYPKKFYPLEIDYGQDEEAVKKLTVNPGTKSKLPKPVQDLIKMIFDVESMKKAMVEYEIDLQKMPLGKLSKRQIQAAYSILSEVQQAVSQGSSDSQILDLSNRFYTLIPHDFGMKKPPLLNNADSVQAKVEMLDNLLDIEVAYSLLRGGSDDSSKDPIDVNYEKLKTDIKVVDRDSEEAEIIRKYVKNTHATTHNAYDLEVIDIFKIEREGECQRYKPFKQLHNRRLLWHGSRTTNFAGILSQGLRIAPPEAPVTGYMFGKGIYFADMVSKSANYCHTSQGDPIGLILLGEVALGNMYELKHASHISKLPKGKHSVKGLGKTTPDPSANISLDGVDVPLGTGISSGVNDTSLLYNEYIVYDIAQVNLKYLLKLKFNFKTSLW

[3] = Maximum concentration in brain of rats after intravenous administration; assay type: ADME, organism-based; set-up: route intravenous; conditions: rat
[4] = Maximum concentration in heart of rats after intravenous administration; assay type: ADME, organism-based; set-up: route intravenous; conditions: rat
Rattus norvegicus [5] = test: Myocardial Ischemic stroke was expressed to determine the reduction in infarct volume at a dose of 40 mg/kg administered intravenously in rats; assay type: functional, Myocardium; conditions: route intravenous
Rattus norvegicus [6] = test: Cerebral Ischemic stroke was expressed to determine the reduction in infarct volume at a dose of 80 mg/kg administered intraperitoneally in rats; assay type: functional; conditions: route intraperitoneal
Rattus norvegicus [7] = test: Cerebral Ischemic stroke was expressed to determine the reduction in infarct volume at a dose of 20 mg/kg administered intravenously i in rats; assay type: functional; conditions: route intravenous
Rattus norvegicus [8] = test: Cerebral Ischemic stroke was expressed to determine the reduction in infarct volume at a dose of 40 mg/kg administered intravenously i in rats; assay type: functional; conditions: route intravenous
Rattus norvegicus [9] = test: Cerebral Ischemic stroke was expressed to determine the reduction in infarct volume at a dose of 40 mg/kg administered intravenously in rats; assay type: functional; conditions: route intravenous
Rattus norvegicus [10] = test: Cerebral Ischemic stroke was expressed to determine the reduction in infarct volume at a dose of 80 mg/kg administered intravenously i in rats; assay type: functional; conditions: route intravenous
Rattus norvegicus [11] = test: Myocardial Ischemic stroke was expressed to determine the reduction in infarct volume at a dose of 80 mg/kg administered intravenously in rats; assay type: functional, Myocardium; conditions: route intravenous
Rattus norvegicus [12] = test: Cerebral Ischemic stroke was expressed to determine the reduction in infarct volume at a dose of 40 mg/kg administered intraperitoneally in rats; assay type: functional; conditions: route intraperitoneal
Rattus norvegicus [13] = test: Cerebral Ischemic stroke was expressed to determine the reduction in infarct volume at a dose of 80 mg/kg administered intravenously in rats; assay type: functional; conditions: route intravenous
Rattus norvegicus [14] = test: Myocardial Ischemic stroke was expressed to determine the reduction in infarct volume at a dose of 20 mg/kg administered intravenously in rats; assay type: functional, Myocardium; conditions: route intravenous

Compound: CN1CCN(c2ccc3nc(O)c4ccccc4c3n2)CC1
- EC50 (P388): 125 nM

- Cmax [1]: 10 ng/mL
Compound: C[N+]1([O-])CCN(c2ccc3nc(O)c4ccccc4c3n2)CC1
- EC50 (P388): 5800 nM

- IC50 [2]: 209 nM
Compound: Nc1ccc2[nH]c(=O)c3ccccc3c2n1

Compound: CS(=O)(=O)O.Oc1nc2ccc(N3CCNCC3)nc2c2ccccc12
- Cmax [3]: 2180 ng/g
- Cmax [4]: 20300 ng/g
- Cmax [1]: 3790 ng/mL
- EC50 (P388): 150 nM
- IC50 [2]: 58 nM

Compound: CN1C[C@H]2C[C@@H]1CN2c1ccc2nc(O)c3ccccc3c2n1
- EC50 (P388): 240 nM

- IC50 [2]: 173 nM
Compound: CCN(CC)CCNc1ccc2[nH]c(=O)c3ccccc3c2n1

Compound: CS(=O)(=O)O.Oc1nc2ccc(N3CCN(CC4CC4)CC3)nc2c2ccccc12
- Cmax [3]: 8850 ng/g
- Cmax [4]: 7480 ng/g
- Cmax [1]: 1950 ng/mL
- EC50 (P388): 145 nM
- IC50 [2]: 71 nM
- Reduction (Rattus norvegicus [5]): 36%

Compound: Oc1nc2ccc(N3C[C@H]4C[C@@H]3CN4)nc2c2ccccc12
- IC50 [2]: 42 nM

- IC50 [2]: 169 nM
Compound: O=c1[nH]c2cnccc2c2ccccc12

Compound: O=c1[nH]c2cccnc2c2ccccc12
- Reduction (Rattus norvegicus [6]): 55%

Compound: CN1CCN(c2ccc3nc(O)c4ccccc4c3n2)CC1.CS(=O)(=O)O
- Cmax [3]: 13700 ng/g
- Cmax [4]: 2980 ng/g
- Cmax [1]: 456 ng/mL
- Reduction (Rattus norvegicus [7]): 33%
- Reduction (Rattus norvegicus [8]): 18%
- Reduction (Rattus norvegicus [9]): 44%
- Reduction (Rattus norvegicus [10]): 35%
- Reduction (Rattus norvegicus [5]): 18.8%
- Reduction (Rattus norvegicus [11]): 25.5%

- IC50 [2]: 774 nM
Compound: CC(C)(C)OC(=O)N1C[C@H]2C[C@@H]1CN2c1ccc2[nH]c(=O)c3ccccc3c2n1

Compound: CN(C)C1CCN(c2ccc3nc(O)c4ccccc4c3n2)CC1
- EC50 (P388): 135 nM
- IC50 [2]: 112 nM

- IC50 [2]: 350 nM
Compound: O=c1[nH]c2ccccc2c2ccccc12
- Reduction (Rattus norvegicus [12]): -7%

Compound: CN(C)CC(=O)Nc1cnc2c(c1)nc(O)c1ccccc12
- EC50 (P388): 2630 nM

Compound: O=C(CN1CCC(N2CCCC2)CC1)Nc1cnc2c(c1)nc(O)c1ccccc12
- EC50 (P388): 1140 nM

Compound: O=C(CN1CCCCC1)Nc1ccc2nc(O)c3ccccc3c2n1
- EC50 (P388): 1110 nM

Compound: CN(C)CC(=O)Nc1ccc2nc(O)c3ccccc3c2n1
- EC50 (P388): 2080 nM

Compound: CC(C)N1CCN(CC(=O)Nc2ccc3nc(O)c4ccccc4c3n2)CC1
- IC50 [2]: 277 nM

Compound: Oc1nc2ccc(N3CCC(N4CCCC4)CC3)nc2c2ccccc12
- EC50 (P388): 177 nM

- Cmax [3]: 1440 ng/g
- Cmax [4]: 38400 ng/g
- Cmax [1]: 4790 ng/mL
Compound: Cl.O=C(CN1CCC(N2CCCC2)CC1)Nc1ccc2nc(O)c3ccccc3c2n1
- EC50 (P388): 1270 nM
- Reduction (Rattus norvegicus [13]): -1%
- Reduction (Rattus norvegicus [14]): 13%
- Reduction (Rattus norvegicus [5]): 39%
- Reduction (Rattus norvegicus [11]): 44%

Compound: Oc1nc2ccncc2c2ccccc12
- Reduction (Rattus norvegicus [12]): 47%

- IC50 [2]: 20000 nM
Compound: NC(=O)c1ccccc1 [BENZAMIDE]
